Molecular target: T1, SPX^XPR1 (recombinant His-tagged SPX domain of human XPR1) (Homo sapiens, UniProt Q9UBH6)
T1 construct: SPX domain only, N-terminal cytosolic part; residue borders not given, cloning primers encode start MKFAEHL and end PPLGAAQ-stop; His tag (modified pHisTrcA), HisTrap purified
T1 sequence (Q9UBH6 1-227): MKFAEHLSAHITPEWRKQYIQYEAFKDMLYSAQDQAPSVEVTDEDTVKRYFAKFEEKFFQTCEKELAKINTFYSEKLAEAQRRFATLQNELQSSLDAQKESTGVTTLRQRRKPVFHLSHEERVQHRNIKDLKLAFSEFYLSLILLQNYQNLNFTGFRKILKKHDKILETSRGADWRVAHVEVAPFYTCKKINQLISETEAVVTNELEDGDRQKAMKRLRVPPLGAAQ
Test: competition with [3H]IP6, PEG precipitation
Assay type: binding

Row | IC50 | SMILES
1 | ~8.4 µM | O=P(O)(O)O[C@@H]1[C@@H](OP(=O)(O)O)[C@@H](OP(=O)(O)O)[C@@H](OP(=O)(O)OP(=O)(O)O)[C@H](OP(=O)(O)O)[C@H]1OP(=O)(O)O [1-IP7]
2 | ~4.2 µM | O=P(O)(O)O[C@H]1[C@@H](OP(=O)(O)O)[C@H](OP(=O)(O)O)[C@@H](OP(=O)(O)OP(=O)(O)O)[C@H](OP(=O)(O)O)[C@H]1OP(=O)(O)O [5-IP7, 5-diphosphoinositol pentakisphosphate]
3 | 28.1 ± 3.9 µM | O=P(O)(O)O[C@@H]1[C@@H](OP(=O)(O)O)[C@H](OP(=O)(O)O)[C@H](O)[C@H](OP(=O)(O)O)[C@H]1OP(=O)(O)O [I(1,3,4,5,6)P5]
4 | ~9.8 µM | O=P(O)(O)O[C@H]1[C@H](OP(=O)(O)O)[C@@H](OP(=O)(O)O)[C@H](OP(=O)(O)O)[C@@H](OP(=O)(O)O)[C@H]1OP(=O)(O)O [IP6, inositol hexakisphosphate]

Reference: article PMC6663863, “The inositol hexakisphosphate kinases IP6K1 and -2 regulate human cellular phosphate homeostasis, including XPR1-mediated phosphate export” (The Journal of Biological Chemistry, 2019)
